Laboratory results from patent US20230102223A1, “PHARMACEUTICAL COMPOSITIONS WITH ANTIFLAVIVIRAL ACTIVITY” (HEALTH RESEARCH, INC., priority 2016, published 2023).
Counter-ions that a name gives are not always drawn. Like-named read-outs stand apart in the source and are kept apart here.

Columns and labels:
POWV = assay type: cell-based, Powassan virus; conditions: without ambient light (in dark)
ZIKV strain GZ01/2016 = assay: Viremia model in immunocompetent Balb/C mice; assay type: in vivo; conditions: 0.02 mg/mice ip daily for 2 days; RT-qPCR on day 2 post-infection
Method: Viremia on day 2 post-infection (pi) was determined by RT-qPCR, and statistical analysis was performed using the unpaired, two-tailed t-test.

YFV = assay: microbe, parasite or virus in culture; assay type: cell-based, yellow fever virus
SLEV = assay type: cell-based, St. Louis encephalitis virus; conditions: without ambient light (in dark)
DENV2 [1] = system: DENV2
ZIKV NS3 expression = assay: Western blot of viral protein expression; assay type: cell-based; conditions: 48 hrs; dose-dependent
Method: The ability of compounds to inhibit viral protein expression was also tested by WB, using GTX133309 ZIKV α-NS3 antibody (GeneTex, Inc.).
Lower panel, NS3 expression normalized to the GAPDH loading control.

ZIKV GZ01/2016 strain = assay: Lethal A129 mice model; assay type: in vivo; conditions: 1 mg/kg ip daily for 5 days
From the text: For the lethal A129 mice model, a group of four-week old A129 mice were infected intraperitoneally (ip) with 2×10^5 PFU of ZIKV GZ01/2016 strain. […] Mice were observed daily for signs of illness and mortality. Survival curves were compared using the Log-rank test. All the ZIKV-infected animals treated with vehicle died with typical neurological symptoms including hind limb weakness and paralysis (FIG. 31B). […] Viremia was detected by RT-qPCR on day 2 post-ZIKV infection in three-week old Balb/C mice.

[2] = molecular target: ZIKV GST-NS3 protease domain / FLAG-tagged ZIKV NS2B (Zika virus, UniProt Q32ZE1); assay: Competitive GST pull-down assay; assay type: binding; conditions: pre-incubation with GST-NS3 beads; dose-dependent
Method: GST-NS3 or the GST-tag (10 μg) was immobilized on Glutathione sepharose-4B affinity beads (GE HealthCare). FLAG-tagged NS2B (10 μg) was incubated with the beads for 2 hours, and subjected to WB, using anti-FLAG (Genscript) and anti-GST antibodies (GE Healthcare). […] The assay was performed the same as in FIG. 32A, except that 2-fold dilution series of drugs were incubated with the GST-NS3 beads overnight prior to incubation with the FLAG-NS2B. […] The binding of NS2B to NS3 in the absence of each drag (DMSO control) was set as 100%. The relative binding of NS2B to NS3 in the presence of each drug was normalized to the DMSO control.

ZIKV = assay: Time-of-addition experiment in infected A549 cells; assay type: cell-based, Zika virus; conditions: for virus reduction: titers at 48 h, no ambient light; for effectiveness of addition at 24-hour post-infection versus at the time of infection: temoporfin 90 nM, niclosamide 0.75 μM, viral plaque reduction assay
WNV = assay: microbe, parasite or virus in culture; assay type: cell-based, West Nile virus
A549 cells = assay: Cytotoxicity, MTT or WST-8 cell proliferation assay
JEV = assay: microbe, parasite or virus in culture; assay type: cell-based, Japanese encephalitis virus
DENV2 His-MBP-NS3 = DENV2 His-MBP-NS3 (Dengue virus type 2, UniProt P29990); assay: Protein thermal shift assay (PTSA); assay type: binding; conditions: compound 4.8 μM, protein 2.5 μM
Method: PTSA was conducted using an Applied Biosystem 7500 Fast Real-Time PCR System (ThermoFisher Scientific) from 25 to 80° C. The DENV2 His-MBP-NS3 (final concentration of 2.5 μM in 1× PBS) was mixed with each compound to attain a 4.8 μM final concentration in 1.6% DMSO in the MicroAmp® Fast Optical 96-Well Reaction Plate (ThermoFisher Scientific). Thermal denaturation was monitored using SYPRO Orange (Life Technologies) according to manufacturer's manual. The denaturation of the proteins was monitored by following the increase of the fluorescence emitted by the probe that binds exposed hydrophobic regions of the denatured protein. The melting temperature (Tm) was calculated as the mid-log of the transition phase from the native to the denatured protein, using a Derivative model using the Protein Thermal Shift™ Software v1.0 (ThermoFisher Scientific). The reference unfolding temperature of proteins in 1.6% DMSO (Tm-DMSO) was subtracted from the values in the presence of each compounds (Tm-comp) to obtain thermal shifts, ΔTm=Tm-comp−Tm-DMSO. Compounds were considered to be binders when ΔTm>0.5° C.

[3] = molecular target: DENV2 His-NS2B/His-MBP-NS3 protease (Dengue virus type 2, UniProt P29990); assay: NS2B/NS3 protease inhibition assay; assay type: biochemical
[4] = molecular target: NS2B-NS3 interactions (Nluc-E66stop/GCN) (Dengue virus type 2, UniProt P29990); assay: biochemical; assay type: binding, DENV2
ZIKV strain GZ01 = conditions: ZIKV strain GZ01, Vero cells, RT-qPCR
[5] = system: ZIKV (Puerto Rico strain PRVABC59); assay: Viral titer reduction assay in A549 cells, ZIKV; assay type: cell-based, Zika virus; conditions: for titer of ZIKV in the absence of light exposure: in dark
[6] = molecular target: refolded His-NS3 protease domain (Dengue virus type 2, UniProt P29990); assay: Surface plasmon resonance (SPR); assay type: binding
DENV2 [7] = assay: microbe, parasite or virus in culture; conditions: Dengue virus
[8] = Cytotoxicity, MTT or WST-8 cell proliferation assay; conditions: human, A549 cells
[9] = JEV*, without ambient light (in dark)
[10] = Table 1, read-out: NS2B-MBP NS3 protease IC50
[11] = NS2B-NS3 SLC signal, read-out: SLC IC50
[12] = ZIKV*, without ambient light (in dark)
[13] = 25° C., 1:1 Langmuir binding model, read-out: dissociation constant (KD)
[14] = DENV2, A549, read-out: EC50 (DENV2)
[15] = Japanese encephalitis virus, A549, JEV

DENV2 His-NS2B/His-MBP-NS3 protease, sequence (P29990 1476-1660 limits assumed): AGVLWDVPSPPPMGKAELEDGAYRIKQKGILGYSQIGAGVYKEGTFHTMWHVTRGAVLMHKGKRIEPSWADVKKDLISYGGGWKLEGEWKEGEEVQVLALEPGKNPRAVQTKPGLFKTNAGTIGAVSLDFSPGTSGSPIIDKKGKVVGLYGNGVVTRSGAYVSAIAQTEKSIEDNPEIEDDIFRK
NS2B-NS3 interactions (Nluc-E66stop/GCN), sequence (P29990 1476-1660 limits assumed): as above
refolded His-NS3 protease domain, sequence (P29990 1476-1653 limits assumed): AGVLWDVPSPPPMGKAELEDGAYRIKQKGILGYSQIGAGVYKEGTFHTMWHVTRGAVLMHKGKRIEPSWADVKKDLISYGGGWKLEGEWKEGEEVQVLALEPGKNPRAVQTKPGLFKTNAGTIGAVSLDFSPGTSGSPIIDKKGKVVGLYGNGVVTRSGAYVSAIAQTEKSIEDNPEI
ZIKV GST-NS3 protease domain / FLAG-tagged ZIKV NS2B, sequence (Q32ZE1 1499-1676): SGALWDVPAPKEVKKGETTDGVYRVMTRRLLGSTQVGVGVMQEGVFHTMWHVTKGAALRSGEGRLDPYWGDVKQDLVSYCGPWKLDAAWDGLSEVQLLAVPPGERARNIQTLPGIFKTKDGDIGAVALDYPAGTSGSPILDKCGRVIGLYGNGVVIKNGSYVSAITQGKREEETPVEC
DENV2 His-MBP-NS3, sequence (P29990 1476-1660 limits assumed): as the sequence (P29990 1476-1660 limits assumed) above

## 3-[10,15,20-tris(3-hydroxyphenyl)-2,3,22,24-tetrahydroporphyrin-5-yl]phenol [Temoporfin]
POWV
  EC50: 10 ± 1 nM
  EC90: 32 nM
ZIKV strain GZ01/2016
  reduction in ZIKV-induced viremia compared to the vehicle control: about 100 fold
YFV; YFV*, without ambient light (in dark), read-out: EC50
  EC50: 6 ± 1 nM
YFV; YFV*, without ambient light (in dark), read-out: EC90
  EC90: 15 nM
SLEV
  EC50: 8 ± 1 nM
  EC90: 25 nM
DENV2 [1]; DENV2, Table 3
  EC50: 20 ± 3 nM
  EC90: 110 nM
DENV2 [1]; read-out: EC50 (DENV2), Table 1
  EC50: 73 nM
ZIKV NS3 expression
  expression of ZIKV NS3 (western blot): significantly inhibited
ZIKV GZ01/2016 strain
  infected animals protected (survival): 83%
[2]
  binding of FLAG-NS2B to GST-NS3: significantly decreased the binding
ZIKV; 90 nM added at 0 hours postinfection
  virus reduction: 92.3%
ZIKV; 90 nM added at 1 hour postinfection
  virus reduction: 92%
ZIKV; 90 nM added at 3 hours postinfection
  virus reduction: 90.5%
ZIKV; 90 nM added at 22 hours postinfection
  virus reduction: 86.5%
ZIKV
  effectiveness of addition at 24-hour post-infection versus at the time of infection: almost equally effective
WNV; WNV*, without ambient light (in dark)
  EC90: 30 nM
WNV; WNV*, without ambient light (in dark), read-out: EC50
  EC50: 10 ± 1 nM
A549 cells; A549 cells, Table 1
  CC50: 40700 nM
A549 cells; Table 3
  CC50: 40700 ± 700 nM
JEV; [9]
  EC50: 11 ± 1 nM
  EC90: 25 nM
DENV2 His-MBP-NS3
  Tm compared to the DMSO control: increased Tm
[3]; [10]
  IC50: 760 nM
[3]; Table 3, read-out: IC50-pro
  IC50: 1100 ± 100 nM
[3]; compound at 1.5 μM, 50 nM MBP-NS3, 1 μM His-NS2B, Abz substrate
  Vmax of the His-NS2B/MBP-NS3 hetero protease complex, % of the DMSO control: 57%
[3]; compound at 1.5 μM, Abz substrate
  Km versus DMSO control: similar
[4]; [11]
  IC50: 11200 nM
ZIKV strain GZ01
  EC50 value: 0.1 µg/mL
[5]; ZIKV
  EC50: 24 ± 3 nM
  EC90: 130 nM
[5]; [12]
  EC50: 22 ± 2 nM
  EC90: 120 nM
[5]
  titer of ZIKV in the absence of light exposure: significantly reduced the titer
[6]; [13]
  Kd: 400 nM

## Cc1ccc(O)c(-n2nc3ccccc3n2)c1 [2-(2H-Benzotriazol-2-yl)-4 methylphenol]
[4]
  IC50: 7800 nM

## Nc1ccc(N=Nc2ccccc2)cc1 [4-Aminoazobenzene]
[4]
  IC50: 12600 nM

## O=C(O)c1cccc(-c2noc(-c3ccccc3F)n2)c1 [Ataluren]
DENV2 [7]; [14]
  EC50: < 2000 nM
DENV2 [1]; DENV2, Table 1
  Therapeutic index (TI) (CC50/EC50): >50
[8]; CC50, A549 cells, Table 1
  CC50 at 42 h: > 100000 nM
[3]; [10]
  IC50: 21600 nM
[4]
  IC50: 100 nM

## CNC(=O)c1ccccc1Sc1ccc2c(/C=C/c3ccccn3)n[nH]c2c1 [Axitinib]
[4]
  IC50: 5300 nM

## c1ccc(CCNc2nc(-c3ccccc3)cs2)cc1 [Fanetizole]
[4]
  IC50: 12400 nM

## COc1ccc2nc(NC(=O)Nc3ccccc3)sc2c1 [Frentizole]
[4]
  IC50: 380 nM

## O=c1c(-c2ccc(O)cc2)coc2cc(O)cc(O)c12 [Genistein]
[4]
  IC50: 7200 nM

## CC(C)Oc1ccc2c(=O)c(-c3ccccc3)coc2c1 [Ipriflavone]
[4]
  IC50: 5300 nM

## CCN(CC)c1ccc(C(=C2C=CC(=[N+](CC)CC)C=C2)c2cc(S(=O)(=O)O)ccc2S(=O)(=O)[O-])cc1 [Isosulfan blue]
[4]; [11]
  IC50: 12200 nM

## CN(C)c1ccc2nc3ccc(=[N+](C)C)cc-3sc2c1 [Methylene blue, [7-(dimethylamino)phenothiazin-3-ylidene]-dimethylazanium;chloride]
DENV2 [7]; [14]
  EC50: < 2000 nM
WNV; West Nile virus, A549
  EC50: 100 nM
[3]; [10]
  IC50: 41600 nM
[3]; Table 3, read-out: IC50-pro
  IC50: 40000 nM
[4]
  IC50: 5500 nM
[5]; Zika virus, A549, ZIKV*, without ambient light (in dark)
  EC50: 280 nM
[5]
  titer of ZIKV in the absence of light exposure: significantly reduced the titer

## O=C(Nc1ccc([N+](=O)[O-])cc1Cl)c1cc(Cl)ccc1O [Niclosamide, 5-chloro-N-(2-chloro-4-nitrophenyl)-2-hydroxybenzamide]
DENV2 [7]; DENV2, A549
  EC50: 550 ± 50 nM
  EC90: 2300 nM
DENV2 [7]; [14]
  EC50: 550 nM
YFV; Yellow fever virus, A549
  EC50: 840 ± 20 nM
  EC90: 1900 nM
DENV2 [1]; DENV2, Table 1
  Therapeutic index (TI) (CC50/EC50): >182
ZIKV NS3 expression
  expression of ZIKV NS3 (western blot): significantly inhibited
[2]
  binding of FLAG-NS2B to GST-NS3: significantly decreased the binding
ZIKV
  effectiveness of addition at 24-hour post-infection versus at the time of infection: almost equally effective
WNV; West Nile virus, A549, WNV
  EC90: 2300 nM
WNV; West Nile virus, A549, WNV, read-out: EC50
  EC50: 540 ± 170 nM
JEV; [15]
  EC50: 1020 ± 80 nM
  EC90: 2400 nM
DENV2 His-MBP-NS3
  Tm compared to the DMSO control: increased Tm
[3]; [10]
  IC50: 12300 nM
[3]; Table 3, read-out: IC50-pro
  IC50: 12300 ± 600 nM
[4]
  IC50: 700 nM
[5]; Zika virus, A549, ZIKV
  EC50: 480 ± 60 nM
  EC90: 1900 nM
[6]
  Kd: 6400 nM

## CC(=O)Oc1ccccc1C(=O)Nc1ncc([N+](=O)[O-])s1 [Nitazoxanide, [2-[(5-nitro-1,3-thiazol-2-yl)carbamoyl]phenyl]acetate]
DENV2 [7]; [14]
  EC50: < 10000 nM
DENV2 [1]; DENV2, Table 1
  Therapeutic index (TI) (CC50/EC50): >0
A549 cells; Table 3
  CC50: 60000 nM
[8]; CC50, A549 cells, Table 1
  CC50 at 42 h: > 100000 nM
[8]; CC50, Table 3
  CC50 at 42 h: 77000 ± 7200 nM
JEV; [15]
  EC50: 390 nM
[3]; [10]
  IC50: 15900 nM
[3]; Table 3, read-out: IC50-pro
  IC50: 15900 ± 900 nM
[4]
  IC50: 3400 nM
[5]; Zika virus, A549, ZIKV
  EC50: 1480 ± 180 nM
  EC90: 4000 nM
[6]; [13]
  Kd: 7300 nM

## CC(C)CCOC(=O)c1ccc(N(C)C)cc1 [Padimate]
[4]; [11]
  IC50: 14400 nM

## Nc1ccc(/N=N/c2ccccc2)c(N)n1 [Phenazopyridine hydrochloride]
[4]
  IC50: 13200 nM

## Clc1ccccc1-c1nc(-c2ccncc2)no1 [Pifexole]
[4]
  IC50: 7500 nM

## Oc1ccc(C=Cc2cc(O)cc(O)c2)cc1 [Resveratrol]
[4]
  IC50: 9000 nM

## O=C(Nc1ncc([N+](=O)[O-])s1)c1cccs1 [Tenonitrozole]
[4]
  IC50: 4900 nM

## Cc1cc2nc3ccc(N(C)C)cc3[s+]c2cc1N [Toluidine blue]
[4]; [11]
  IC50: 14300 nM

## CS(=O)(=O)c1ccc(-c2cn3ccccc3n2)cc1 [Zolimidine]
[4]
  IC50: 12100 nM

## Amlenasox
[4]; [11]
  IC50: 4700 nM
